The values that follow are results of earlier work, collected in US20210299068A1, “ANTIMICROBIAL COMPOSITIONS COMPRISING CHLORHEXIDINE” (3M INNOVATIVE PROPERTIES COMPANY, priority 2018, published 2021).

The conditions of the series: at neutral pH.

Take `O=C([O-])CN(CCO)CCN(CC(=O)[O-])CC(=O)[O-].[Na+].[Na+].[Na+]` [HEDTA.Na3, N-(2-Hydroxyethyl)ethylenediaminetriacetic acid trisodium salt]: the “Formation constant for the complex with calcium” value is given as 10^6.
